Where “and” joins values, the source holds several entries; their conditions need not be identical. Identical values can stand only once.
How the values were obtained:
[1] = Stability of PtCYP782C1 products in leaf extract incubated at room temperature; type: physicochemical; conditions: samples incubated at room temperature for 1 h
Experimental: The production of (2S, 4S)-6 and (2S, 4R)-6 was consistent with our hypothesis for elimination-mediated formation of the proposed diene (8). Because formation of 8 would require oxidation of the O-acetylated substrate(s), we next screened CYP and 2OGD family enzymes found in cluster131. […] This coincided with the presence of two new compounds: one that corresponded to a single oxidation (desaturation) of the O-acetylated substrate (7, [M + H]^+ = m/z 184.1332, retention time 1.86 min), as well as another which shared the same exact mass as 8 ([M + H]^+ = m/z 124.1121, retention time 1.93 min). […] Although this limited our ability to access authentic standards, tandem mass spectrometry (MS/MS or MS^2) analysis supported the proposed structures of 7 and 8 and ultraviolet (UV) analysis of 8 corroborated the presence of the predicted α,β-unsaturated imine in this molecule[34] (Extended Data Fig. 2c,d). […]
Extended Data Fig. 2 Functional characterization of PtCYP782C1. a) Transient expression of PtCYP782C1 with a biosynthetic module for the production of 6 diastereomers (PtLDC, PtCAO, PtPIKS, PtSDR-1 or PtSDR-2 and PtACT-1) in N. benthamiana. […] Product abundance is calculated as the integration of the peak generated in the EIC for each mass ion. g) Relative activity of PtCYP782C1 microsomes at varying pH, as determined via production of both 7 and 8. […]

[2] = tested on: several insect species; design: method as in PMID 11804518; conditions: cited from earlier work
[3] = biological target: T1, PtCAL-1a/PtCAL-2a (Phlegmariurus tetrastichus, UniProt P0DXL1+P0DXL3); assay: In vitro reactions with apoplastic PtCAL-1a/PtCAL-2a (formation of 9, decarboxylation of 3, Zn chelator); type: biochemical
T1 construct: N-terminal signal peptide[58], which would be cleaved during processing and trafficking of these proteins; made in house; host or cells: Nicotiana benthamiana leaves (Agrobacterium transient co-expression, pEAQ-HT), concentrated apoplast extract
T1 sequence (P0DXL1 22-280): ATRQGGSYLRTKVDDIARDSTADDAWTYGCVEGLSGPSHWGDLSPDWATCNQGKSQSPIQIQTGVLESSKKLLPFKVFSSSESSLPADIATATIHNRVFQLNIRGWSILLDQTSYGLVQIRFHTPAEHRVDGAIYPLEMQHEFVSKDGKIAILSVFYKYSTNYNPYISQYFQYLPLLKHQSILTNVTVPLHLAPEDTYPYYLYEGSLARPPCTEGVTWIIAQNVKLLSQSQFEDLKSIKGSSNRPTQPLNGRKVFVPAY
T1 sequence (P0DXL3 24-284): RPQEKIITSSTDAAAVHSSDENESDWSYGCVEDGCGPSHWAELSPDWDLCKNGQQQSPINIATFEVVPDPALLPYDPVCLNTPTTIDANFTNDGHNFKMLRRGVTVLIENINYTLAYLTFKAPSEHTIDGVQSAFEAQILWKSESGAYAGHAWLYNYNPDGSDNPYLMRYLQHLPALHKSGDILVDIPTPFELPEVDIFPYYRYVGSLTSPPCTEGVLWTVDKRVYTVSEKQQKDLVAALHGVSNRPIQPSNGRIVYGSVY
Excerpt: The three CAL proteins identified in this study have predicted N-terminal signal peptides, which were identified using the TargetP-2.0 server (https://services.healthtech.dtu.dk/service.php?TargetP-2.0)[58]. […] To assess this possibility, CAL genes with or without C-terminal 6xHis tags were transiently expressed in N. benthamiana, as described above. Each CAL gene was expressed individually; also, PtCAL-1a and PtCAL-2a were transiently co-expressed in the same leaf because we had found them to cofunction in Lycopodium alkaloid biosynthesis. At 4 days after Agrobacterium infiltration, apoplast protein extracts were isolated using the infiltration–centrifugation method, much as previously described. Two leaves per reaction were excised from the plant and submerged in ice-cold apoplast extraction buffer (100 mM MES, 300 mM NaCl, pH 5.5) in an open-capped 50 ml Falcon tube and these tubes were placed in a plastic vacuum chamber attached to a Welch Model 2025 vacuum pump. The chamber was brought down to full vacuum and after 2 min at this pressure, the vacuum was slowly released to allow for buffer to infiltrate the leaf apoplastic space. Buffer-infiltrated leaves were carefully removed from the Falcon tubes, blotted dry with paper towels and were then rolled into Parafilm and placed in a plungerless 5 ml plastic syringe. The syringe was placed in a 15 ml Falcon tube and this was then centrifuged at 1,000g and 4 °C for 10 min to collect apoplast extract. The resulting extract was centrifuged at 10,000g and 4 °C for 15 min to pellet any larger cellular debris and the supernatant was concentrated using an Amicon Ultra-4 Centrifugal Filter Unit (10 kDA MWCO, MilliporeSigma UFC501024). Protein concentrations were measured using the BIO-RAD Protein Assay or Bradford assay (Abcam 119216) and adjusted with apoplast extraction buffer to a final concentration between 0.5 and 1.5 mg ml^−1. Aliquots of the extracts were snap frozen in liquid nitrogen and stored at −80 °C.
Reactions with CAL-enriched apoplast were routinely performed in low-pH potassium phosphate buffer (50 mM potassium phosphate, 100 mM NaCl, pH 5.9) at a volume of 20 µl. For PtCAL-1a/PtCAL-2a, these reactions contained approximately 1.4 µg of apoplast protein for each CAL (final concentration of 0.07 µg µl^−1). Control reactions used apoplast from leaves expressing only one CAL or with apoplast generated from GFP-expression N. benthamiana leaves. The requisite substrates for this reaction were generated through the activities of in vitro PtPIKS-1 and PtCYP782C1 enzyme reactions. […]. To generate 3 and 4 as potential substrates, 1 µg of previously purified PtPIKS-1 enzyme[23] and 150 µM 1 and 300 µM malonyl-CoA were added directly to the CAL reaction mixtures. After thorough mixing, reactions were incubated at room temperature. An alternative route for producing 3 and 4 independently of thioester intermediates was achieved by mixing stocks of 1 (10 mM in water) and 2 (10 mM in water; always prepared fresh to minimize compound decomposition) in equal proportion, followed by incubation at room temp for 1–2 h, as these two substrates can non-enzymatically condense to yield 3 (which can spontaneously decarboxylate to produce 4). A 2 µl aliquot of this mixture was then added as a component of the PtCAL-1a/PtCAL-2a enzyme reaction (20 µl total reaction volume) in addition to the PtCYP782C1 microsomal reaction mixture. After predesignated incubation times, reactions were quenched by diluting tenfold into ACN with 0.1% formic acid.
To evaluate the potential decarboxylation of β-keto acid substrates by PtCAL-1/PtCAL-2 and PtCAL-3, only 3 or 2, respectively, were added as substrate. PtCAL-1/PtCAL-2 reactions were quenched by diluting aliquots tenfold into ACN with 0.1% formic acid and were subsequently analysed through HILIC LC–MS. PtCAL-3 reactions were quenched by mixing aliquots with an equal volume of water with 0.2% formic acid and were then analysed through C18 LC–MS. […]

SMILES: CC(=O)OC(C)CC1=NCCCC1 (centres unmarked) [compound 7]
- stability of compound in sample [1]: almost entirely lost

SMILES: C/C=C/C1=NCCCC1 [compound 8]
- stability of compound in sample [1]: almost entirely lost

SMILES: C/C=C1\[C@H]2C=C(C)C[C@]1(N)c1ccc(=O)[nH]c1C2 [compound 17, huperzine A]
- antifeedant activity [2]: antifeedant activity

SMILES: O=C(O)CC(=O)CC1CCCCN1 (centres unmarked) [compound 3, 4-(2-piperidyl)acetoacetic acid]
- ratio of 4 ion abundance (m/z 142.1226) to that of 3 (m/z 186.1125) ([3]; PtCAL-1a/PtCAL-2a +3 (ED 4h)): 31.4694 and 27.1428 and 38.6295
- ratio of 4 ion abundance (m/z 142.1226) to that of 3 (m/z 186.1125) ([3]; PtCAL-1a/PtCAL-2a +3, 0.25 hrs (ED 4g)): 66.6374 and 57.9149 and 54.0594
- ratio of 4 ion abundance (m/z 142.1226) to that of 3 (m/z 186.1125) ([3]; PtCAL-1a/PtCAL-2a +3, 0.5 hrs (ED 4g)): 59.9271 and 67.8727 and 55.7877
- ratio of 4 ion abundance (m/z 142.1226) to that of 3 (m/z 186.1125) ([3]; PtCAL-1a/PtCAL-2a +3, 1 hrs (ED 4g)): 70.6508 and 59.4497 and 51.4084
- ratio of 4 ion abundance (m/z 142.1226) to that of 3 (m/z 186.1125) ([3]; PtCAL-1a/PtCAL-2a +3, 2 hrs (ED 4g)): 57.1082 and 53.747 and 49.4186
